According to PubChem BioAssay AID248 (DTP/NCI, 2004):
Several values for one entry are separate records, joined by “and”; a condition that tells them apart may be missing. Equal values may be shown once. Inconclusive results and toxic doses are left out.

System: L1210 leukemia ip in BDF1 mice, survival T/C
Assay: NCI In Vivo Anticancer Drug Screen. Data for tumor model L1210 Leukemia (intraperitoneal) in B6D2F1 (BDF1) mice
Conditions: endpoint: mean survival time, higher = longer survival
Outline: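 Mice bearing the transplanted tumor received compound or vehicle. Survival of the treated group was divided by that of the vehicle-treated control group to give the ratio.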

[1] = dose: 100.0 mg/kg/injection, schedule: Q04DX003 (ip), vehicle: saline with Tween-80
[2] = dose: 100.0 mg/kg/injection, schedule: Q04DX003 (ip), vehicle: saline
[3] = dose: 200.0 mg/kg/injection, schedule: Q04DX003 (ip), vehicle: saline
[4] = dose: 400.0 mg/kg/injection, schedule: Q04DX003 (ip), vehicle: saline
[5] = dose: 100.0 mg/kg/injection, schedule: Q04DX003 (ip), vehicle: other
[6] = dose: 200.0 mg/kg/injection, schedule: Q04DX003 (ip), vehicle: other
[7] = dose: 400.0 mg/kg/injection, schedule: Q04DX003 (ip), vehicle: other
[8] = dose: 100.0 mg/kg/injection, schedule: Q01DX001 (ip), vehicle: saline with Tween-80
[9] = dose: 200.0 mg/kg/injection, schedule: Q01DX001 (ip), vehicle: saline with Tween-80
[10] = dose: 400.0 mg/kg/injection, schedule: Q01DX001 (ip), vehicle: saline with Tween-80
[11] = dose: 100.0 mg/kg/injection, schedule: Q04DX003 (ip), vehicle: Klucel (hydroxypropylcellulose) (HPC)
[12] = dose: 100.0 mg/kg/injection, schedule: Q01DX001 (ip), vehicle: saline
[13] = dose: 200.0 mg/kg/injection, schedule: Q01DX001 (ip), vehicle: saline
[14] = dose: 400.0 mg/kg/injection, schedule: Q01DX001 (ip), vehicle: saline
[15] = dose: 100.0 mg/kg/injection, schedule: Q01DX009 (ip), vehicle: saline with Tween-80
[16] = dose: 200.0 mg/kg/injection, schedule: Q01DX009 (ip), vehicle: saline with Tween-80
[17] = dose: 400.0 mg/kg/injection, schedule: Q01DX009 (ip), vehicle: saline with Tween-80
[18] = dose: 25.0 mg/kg/injection, schedule: Q01DX009 (ip), vehicle: saline with Tween-80
[19] = dose: 50.0 mg/kg/injection, schedule: Q01DX009 (ip), vehicle: saline with Tween-80

CNC(C(=O)O)c1ccccc1 (stereo unspecified)
T/C (dose: 100.0 mg/kg/injection, schedule: Q01DX001 (ip), vehicle: steriod suspending solution): 89 % of control
T/C (dose: 200.0 mg/kg/injection, schedule: Q01DX001 (ip), vehicle: steriod suspending solution): 97 % of control
T/C (dose: 400.0 mg/kg/injection, schedule: Q01DX001 (ip), vehicle: steriod suspending solution): 87 % of control

Cc1ccc(Cl)cc1N=Cc1ccccc1O
T/C [1]: 94 % of control
T/C (dose: 400.0 mg/kg/injection, schedule: Q04DX003 (ip), vehicle: saline with Tween-80): 98 % of control

C=CC1CC2C=CC1C2 (stereo unspecified)
T/C [2]: 100 % of control
T/C [3]: 103 % of control
T/C [4]: 106 % of control

CC(=O)Nc1cc(Cl)ccc1C(=O)O
T/C (dose: 100.0 mg/kg/injection, schedule: Q01DX001 (ip), vehicle: other): 109 % of control
T/C [5]: 96 % of control
T/C (dose: 200.0 mg/kg/injection, schedule: Q01DX001 (ip), vehicle: other): 98 % of control
T/C [6]: 90 % of control
T/C (dose: 400.0 mg/kg/injection, schedule: Q01DX001 (ip), vehicle: other): 101 % of control
T/C [7]: 96 % of control

CCOc1ccccc1/C=C1\C=C(CC)SC1=O
T/C [8]: 91 % of control
T/C [9]: 94 % of control
T/C [10]: 91 % of control

CCC(=O)c1ccc(O)cc1
T/C [11]: 102 % of control
T/C (dose: 200.0 mg/kg/injection, schedule: Q04DX003 (ip), vehicle: Klucel (hydroxypropylcellulose) (HPC)): 102 % of control
T/C (dose: 400.0 mg/kg/injection, schedule: Q04DX003 (ip), vehicle: Klucel (hydroxypropylcellulose) (HPC)): 102 % of control

COC(=O)CNc1ccc(O)cc1
T/C [5]: 102 % of control
T/C [6]: 94 % of control
T/C [7]: 88 % of control

S=C(Nc1ccccc1)NC1CC2C=CC1CC2 (stereo unspecified)
T/C [12]: 90 % of control
T/C [13]: 92 % of control
T/C [14]: 113 % of control

CC1CCc2[nH]c3ccc4ccccc4c3c2C1 (stereo unspecified)
T/C (dose: 25.0 mg/kg/injection, schedule: Q04DX003 (ip), vehicle: Klucel (hydroxypropylcellulose) (HPC)): 98 % of control
T/C (dose: 50.0 mg/kg/injection, schedule: Q04DX003 (ip), vehicle: Klucel (hydroxypropylcellulose) (HPC)): 95 % of control
T/C [11]: 93 % of control

O=c1c2c(O)cccc2oc2cccc(O)c12
T/C [15]: 95 % of control
T/C [16]: 91 % of control
T/C [17]: 96 % of control

O=NN(CCCl)C(=O)c1cc(Cl)cc(Cl)c1
T/C (dose: 12.5 mg/kg/injection, schedule: Q01DX009 (ip), vehicle: saline with Tween-80): 115 % of control
T/C [18]: 117 % of control
T/C [19]: 111 % of control and 91 % of control
T/C [15]: 93 % of control
T/C [16]: 99 % of control

O=C(O)C1(c2ccccc2)OCCO1
T/C [15]: 95 % of control
T/C [16]: 94 % of control
T/C [17]: 95 % of control

CN1CCC(OC2c3ccccc3CCc3ccccc32)CC1
T/C (dose: 3.12 mg/kg/injection, schedule: Q01DX009 (ip), vehicle: saline): 109 % of control
T/C (dose: 6.25 mg/kg/injection, schedule: Q01DX009 (ip), vehicle: saline): 108 % of control
T/C (dose: 12.5 mg/kg/injection, schedule: Q01DX009 (ip), vehicle: saline): 106 % of control
T/C (dose: 25.0 mg/kg/injection, schedule: Q01DX009 (ip), vehicle: saline): 111 % of control
T/C (dose: 25.0 mg/kg/injection, schedule: Q04DX003 (ip), vehicle: saline): 100 % of control
T/C (dose: 50.0 mg/kg/injection, schedule: Q01DX009 (ip), vehicle: saline): 117 % of control
T/C (dose: 50.0 mg/kg/injection, schedule: Q04DX003 (ip), vehicle: saline): 103 % of control
T/C (dose: 100.0 mg/kg/injection, schedule: Q01DX009 (ip), vehicle: saline): 88 % of control
T/C [2]: 86 % of control

COc1cc(Cn2cccc2/C=N/NC(N)=S)cc(OC)c1
T/C (dose: 25.0 mg/kg/injection, schedule: Q04DX002 (ip), vehicle: Klucel (hydroxypropylcellulose) (HPC)): 105 % of control
T/C (dose: 50.0 mg/kg/injection, schedule: Q04DX002 (ip), vehicle: Klucel (hydroxypropylcellulose) (HPC)): 111 % of control
T/C (dose: 100.0 mg/kg/injection, schedule: Q04DX002 (ip), vehicle: Klucel (hydroxypropylcellulose) (HPC)): 111 % of control

O=S(CCO)CCS(=O)CCO (stereo unspecified)
T/C (dose: 75.0 mg/kg/injection, schedule: Q01DX009 (ip), vehicle: saline): 95 % of control
T/C [2]: 106 % of control
T/C (dose: 150.0 mg/kg/injection, schedule: Q01DX009 (ip), vehicle: saline): 101 % of control
T/C [3]: 110 % of control
T/C (dose: 300.0 mg/kg/injection, schedule: Q01DX009 (ip), vehicle: saline): 97 % of control
T/C [4]: 100 % of control

CCCOC1=C2CCCCC2CC1 (stereo unspecified)
T/C [12]: 113 % of control
T/C [13]: 113 % of control
T/C [14]: 102 % of control

O=C(COc1ccccc1)NC(=S)Nc1ccc(F)c([N+](=O)[O-])c1
T/C [8]: 113 % of control
T/C [15]: 100 % of control and 86 % of control
T/C (dose: 100.0 mg/kg/injection, schedule: Q04DX002 (ip), vehicle: saline with Tween-80): 94 % of control and 119 % of control
T/C [9]: 98 % of control
T/C [16]: 99 % of control and 116 % of control
T/C (dose: 200.0 mg/kg/injection, schedule: Q04DX002 (ip), vehicle: saline with Tween-80): 102 % of control and 103 % of control
T/C [10]: 95 % of control
T/C [17]: 102 % of control
T/C (dose: 400.0 mg/kg/injection, schedule: Q04DX002 (ip), vehicle: saline with Tween-80): 104 % of control and 87 % of control

O=P(N1CCCC1)(N1CC1)N1CC1
T/C (dose: 1.3 mg/kg/injection, schedule: Q01DX Z (ip), vehicle: carboxymethylcellulose (CMC)): 94 % of control
T/C (dose: 2.0 mg/kg/injection, schedule: Q01DX Z (ip), vehicle: carboxymethylcellulose (CMC)): 109 % of control
T/C (dose: 2.0 mg/kg/injection, schedule: Q01DX Z (ip), vehicle: saline): 114 % of control and 120 % of control
T/C (dose: 3.0 mg/kg/injection, schedule: Q01DX Z (ip), vehicle: carboxymethylcellulose (CMC)): 109 % of control
T/C (dose: 4.5 mg/kg/injection, schedule: Q01DX Z (ip), vehicle: carboxymethylcellulose (CMC)): 160 % of control
T/C (dose: 7.5 mg/kg/injection, schedule: Q01DX Z (ip), vehicle: saline): 118 % of control

O=c1[nH]c2cnn(-c3ccccc3)c2c(=O)n1OS(=O)(=O)c1ccccc1
T/C (dose: 5.0 mg/kg/injection, schedule: Q01DX001 (ip), vehicle: saline): 103 % of control
T/C (dose: 10.0 mg/kg/injection, schedule: Q01DX001 (ip), vehicle: saline): 100 % of control
T/C (dose: 20.0 mg/kg/injection, schedule: Q01DX001 (ip), vehicle: saline): 100 % of control
T/C (dose: 40.0 mg/kg/injection, schedule: Q01DX001 (ip), vehicle: saline): 97 % of control
T/C (dose: 50.0 mg/kg/injection, schedule: Q01DX001 (ip), vehicle: saline): 109 % of control
T/C (dose: 80.0 mg/kg/injection, schedule: Q01DX001 (ip), vehicle: saline): 97 % of control
T/C [12]: 100 % of control
T/C [13]: 97 % of control
T/C [14]: 103 % of control

O=C(CCC(=O)[O][Sn]([c]1ccccc1)([c]1ccccc1)[c]1ccccc1)[O][Sn]([c]1ccccc1)([c]1ccccc1)[c]1ccccc1
T/C (dose: 1.56 mg/kg/injection, schedule: Q01DX009 (ip), vehicle: saline with Tween-80): 93 % of control
T/C (dose: 3.12 mg/kg/injection, schedule: Q01DX009 (ip), vehicle: saline with Tween-80): 90 % of control
T/C (dose: 6.25 mg/kg/injection, schedule: Q04DX003 (ip), vehicle: saline with Tween-80): 95 % of control
T/C (dose: 12.5 mg/kg/injection, schedule: Q01DX001 (ip), vehicle: saline): 104 % of control
T/C (dose: 25.0 mg/kg/injection, schedule: Q01DX001 (ip), vehicle: saline): 91 % of control

O=[N+]([O-])c1ccc(C(O)Nc2nccs2)o1 (stereo unspecified)
T/C [18]: 96 % of control
T/C [19]: 117 % of control

CC1CC(=O)C(CN(C)C)C(C)(C)C1 (stereo unspecified)
T/C (dose: 75.0 mg/kg/injection, schedule: Q01DX001 (ip), vehicle: saline): 106 % of control
T/C (dose: 150.0 mg/kg/injection, schedule: Q01DX001 (ip), vehicle: saline): 100 % of control

Cn1ccoc1=NC1CCCCC1
T/C [1]: 96 % of control
T/C (dose: 200.0 mg/kg/injection, schedule: Q04DX003 (ip), vehicle: saline with Tween-80): 95 % of control
